Laboratory results published in paper PMC6486608, “A cell-penetrating peptide blocks Toll-like receptor-mediated downstream signaling and ameliorates autoimmune and inflammatory diseases in mice” (Experimental & Molecular Medicine, 2019).
pKd: −log10 of the molar value. Ends that are not written are not given here.

What was measured:
[1] = biological target: T1, BB loop (710-RDFIPGVAIAA-720) of the TLR4-TIR domain (Homo sapiens, UniProt O00206); experiment: SPR, BB loop; type: binding
T1 construct: Synthetic peptides encoding the BB loop (710-RDFIPGVAIAA-720) of the TIR domain were immobilized; purchased Peptron, Inc. (Daejeon, Korea); host or cells: chemical synthesis
Experimental: The SPR experiments were conducted using a ProteOn XPR36 instrument (Bio-Rad Laboratories, Inc.) with a ProteOn NLC sensor chip. PBST served as running buffer, and 0.85% phosphoric acid or PBST was used for regeneration. Synthetic peptides encoding the BB loop (710-[…]-720) of the TIR domain were immobilized by NeutrAvidin bound to the GLC polymer layer onto surfaces of an NLC sensor chip as described in the protocol. Different concentrations of TIP1 (12.5, 25, or 50 μM) were run into the chip to check their binding with the immobilized peptides. Running buffer was injected into an empty channel as a reference. The dissociation was monitored for 5 min, and the chip was regenerated for the second round. ProteOn Manager software (version 2.0) was employed to analyze the data. The binding curves were processed for the start injection alignment and baseline. A reference-subtracted sensorgram was fitted globally to the curves describing a homogeneous 1:1 model. Data from various doses of TIP1 were grouped together to fit the kinetic rate constants (ka and kd). The equilibrium dissociation constant, KD, was calculated according to the equation KD = kd/ka. Surface plasmon resonance (SPR) is a powerful technique used for high-throughput screening and is considered a potent tool for drug discovery. SPR can provide detailed information on peptide-receptor binding kinetics or small-molecule-protein or protein-protein interactions. […] The association rate constant (ka), dissociation rate constant (kd), and equilibrium dissociation constant (KD) of TIP1 were measured in a dose-dependent manner (Fig. 4a). […] Later, the fluorescence intensities of TIP1-FITC, TLR4, and MyD88 were measured by immunofluorescent staining and confocal microscopy. […] The expression levels of TLR4 and MyD88 and the localization of TIP1-FITC were determined by immunofluorescent staining and confocal microscopy. Orthogonal projections, 3D image reconstruction, and fluorescence intensity profiles of confocal images show localization of TIP1-FITC and TLR4.

[2] = system: CIA mouse model (DBA/1J mice); experiment: RA in a model of CIA; type: in vivo; settings: i.p. daily
Experimental: All animal care and experimental procedures were conducted in accordance with the National Institute of Health Guide for the Care and Use of Laboratory Animals and were approved by the Animal Care and Use Committee of Kyung Hee University [Permit number: KHUASP(SE)-15-115]. Male DBA/1J mice weighing 20–23 g (6–7 weeks old) were purchased from Central Lab Animal Inc. (Seoul, Korea). The mice were housed in a limited-access rodent facility at 22–24 °C with up to four animals per polycarbonate cage under a 12:12-h light/dark cycle with free access to pelleted food and water. CIA was implemented according to the protocol previously described. Briefly, the mice were immunized at the base of the tail with a mixture of 100 μg of chicken type II collagen (CII, Sigma-Aldrich) and an equal volume of complete Freund’s adjuvant (Sigma-Aldrich); this time point was designated as day 0. The mice were then given a booster (second) injection of the mixture on day 14. […] To evaluate arthritis progression in the CIA mice, body weight, paw volume, squeaking score, and the arthritic index were measured. The mouse body weights were measured using a digital balance (Mettler-Toledo Inc., Columbus, OH, USA). Joint pain in the hindlimb was evaluated by scoring squeaking during forced flexion and extension of the hindlimb ankle joint 10 times every 5 s. […] Total numbers of vocalizations detected by the observer were then calculated as the squeaking score. Paw volume was measured by the volume displacement of an electrolyte solution using a water-displacement plethysmometer (Ugo-Basile Biological Research Apparatus Co., Comerio-Varese, Italy) as described elsewhere[13],[14]. The hind paw was immersed to the level of the hairy skin, and the volumes were read on a digital display. Paw volume was expressed as a relative value compared with that on day 0, which was defined as 1.0 (100%). […]

Compound | kon ([1]; homogeneous 1:1 model, global fit of 12.5, 25, 50 µM, read-out: ka (association rate constant)) [M⁻¹ s⁻¹] | koff ([1]; homogeneous 1:1 model, global fit of 12.5, 25, 50 µM, read-out: kd (dissociation rate constant)) [s⁻¹] | pKd ([1]; printed in figure 4a, calculated as kd/ka) | body weight, average ([2]; TIP1 10 nmol/g or prednisolone 5 mg/kg, CIA 16.9 g, normal 21.9 g) [g] | arthritis index score ([2]; TIP1 10 nmol/g or prednisolone) | squeaking and paw volume increase ([2]; TIP1 10 nmol/g or prednisolone)
RQIKIWFQNRRMKWKKSHCRVLLI [TIP1] | 187 | 0.00782 | 4.38 |  |  | 
C[C@]12C=CC(=O)C=C1CC[C@@H]1[C@@H]2[C@@H](O)C[C@@]2(C)[C@H]1CC[C@]2(O)C(=O)CO [prednisolone] |  |  |  | 21.0 | significantly decreased the index score | highly increased in the CIA mice compared with normal mice but not in the TIP1 (10 nmol/g)- or prednisolone-injected mice
